# Data published in US12150945B2, “Liver disease” (Lipocine Inc., priority 2018, dated 2024).
# Columns and labels:
# Assay type in all cases: in vivo, human
# [1] = system: SHBG; test: Sex hormone binding globulin (SHBG) levels, trial of Example 1
# Description: (§1) Oral testosterone therapy was evaluated in a multicenter, phase 3, randomized, open-label, active controlled, parallel-group study that included a 13-week efficacy phase and a 52-week safety phase. An active arm in which subjects received T gel was included for safety evaluation only.
# Subjects were randomized in a 2:1 ratio to oral testosterone undecanoate or T gel. oral testosterone undecanoate subjects started at a dose of 225 mg TU (“testosterone undecanoate”) taken twice daily (total daily dose: 450 mg TU) every 12 hours. For optimal lymphatic absorption oral testosterone undecanoate must be administered with a meal. […]
# (§2) Serum levels of T, TU, dihydrotestosterone (DHT), dihydrotestosterone undecanoate (DHTU), and estradiol (E2) were evaluated in oral testosterone undecanoate treated subjects. […] Sex hormone binding globulin (SHBG) was evaluated in data from all subjects. Serum T concentrations at screening were measured using chemiluminescence immunoassay kits. Hormone assays for pharmacokinetic assessment were analyzed at PPD Bioanalytical Laboratory in Richmond, Virginia Serum samples were analyzed for T, DHT, TU, DHTU, and E2 using a validated liquid chromatography-tandem mass spectrometry (LC-MS/MS) assay.
# [2] = system: ALT, GGT, BUN, total cholesterol, LDL-C, triglyceride; test: Liver Fat Study: normalization of labs (ALT, GGT, BUN, total cholesterol, LDL-C, triglyceride) at end of study (Example 6)
# Description: This example is part of an ongoing Liver Fat Study which is an open-label, multi-center, single arm study evaluating LPCN 1144 treatment (e.g., androgen therapy, testosterone therapy, oral testosterone ester, or 225 mg testosterone undecanoate orally) in a cohort of 36 hypogonadal males (NCT03868059). Subjects with at least 10% baseline liver fat were evaluated which is indicative of subjects with NAFLD with the potential to have NASH. Interim results of seven of the nine subjects in the Liver Fat Study with baseline liver fat of at least 10% are presented as two subjects were unable to schedule an eight-week MRI-PDFF visit. Baseline mean liver fat of these seven subjects was 21.0%.
# An MRI-PDFF study of 36 male hypogonadal subjects (having 2 morning testosterone levels of 300 ng/dL or less) was performed as part of an ongoing trial. Basic baseline labs including liver function tests (e.g., AST & ALT) and serum triglycerides were collected and analyzed. It was found by non-linear regression, that BMI (ALT, AST, serum Triglyceride) was associated with liver fat (P<0.006). It was found by non-linear regression, that serum triglyceride levels (obesity, hypertension, type 2 diabetes) were associated with liver fat (P<0.006).
# [3] = system: lipids; test: Lipid parameters (HDL, LDL, total cholesterol, triglycerides, non-HDL cholesterol), change from baseline to end of study, trial of Example 1
# Description: as §1
# (§3) Subjects were randomized in a 2:1 ratio to oral testosterone undecanoate or T gel. oral testosterone undecanoate subjects started at a dose of 225 mg TU (“testosterone undecanoate”) taken twice daily (total daily dose: 450 mg TU) every 12 hours. For optimal lymphatic absorption oral testosterone undecanoate must be administered with a meal. Therefore, subjects were instructed to administer oral testosterone undecanoate after a standard meal (defined as a meal consisting of 800 to 1400 calories with approximately 20% to 35% fat content). The oral testosterone undecanoate dose was titrated at Weeks 4 and 8, if necessary, based on results of intensive 24-hour PK blood sampling obtained at Weeks 3 and 7, respectively. Oral testosterone undecanoate subjects stayed at the clinic overnight during each intensive PK blood sampling period. […] Oral testosterone undecanoate dose levels permitted during the study were 150 mg BID, 225 mg BID, and 300 mg BID. Data collected during an intensive 24-hour PK sampling overnight stay at Week 13 were used for efficacy analysis; dose was not adjusted at this visit. Additional outpatient visits were conducted at Weeks 26, 39, and 52 during which single blood draws were performed 3 to 6 hours post morning dose. Dose was not adjusted during these visits.
# (§4) T gel (ANDROGEL®) (testosterone gel for topical use) 1.62%, AbbVie, Chicago, Illinois, US) was supplied in non-aerosol, metered dose pumps that deliver 20.25 mg T per complete pump actuation. T gel was dosed according to product labeling. Subjects receiving T gel completed outpatient visits at Weeks 2 and 4 with single blood draws to determine titration and at Weeks 3 and 5 for dose changes, if necessary. They also completed an outpatient visit at Week 7 for safety assessments and at Weeks 13, 26, 39 and 52 during which single blood samples were obtained 3 to 6 hours after the morning dose. Dose was not adjusted during these visits. Overnight clinic stays were not required for T gel subjects.
# (§5) Safety endpoints included adverse events (AEs), physical examination findings, vital signs, electrocardiograms (ECGs), and clinical laboratory tests. AEs were classified using the Medical Dictionary for Regulatory Activities (Version 16.1). Safety endpoints were summarized using descriptive statistics. Lab parameters were evaluated using two sample t-tests comparing change from baseline to end of study (EOS) across oral testosterone undecanoate and T gel subjects with p-values <0.05 considered statistically significant.
# [4] = system: Lipoprotein-associated phospholipase A2; test: Lipoprotein-associated phospholipase A2, change from baseline to end of study, trial of Example 1
# Description: as §1, §3, §4, §5
# [5] = system: C-Reactive Protein; test: C-Reactive Protein, change from baseline to end of study, trial of Example 1; conditions: Safety Set; subjects with CRP values > 95.23 excluded
# [6] = Serum DHT, DHT/T ratio, E2 and calculated free T, hormone assessment in trial of Example 1; conditions: for ratio of DHT/T based on Cavg0-24 h / ratio of DHT/T based on Cmax: normal range 0.05 to 0.33
# Description: as §3, §2
# [7] = Serum testosterone pharmacokinetics (24-hour PK sampling, LC-MS/MS), phase 3 oral testosterone undecanoate trial of Example 1; conditions: for Average serum T levels: single blood draw 3 to 6 hours post morning dose
# Description: as §1
# Males 18 through 80 years old with a documented diagnosis of primary hypogonadism (congenital or acquired) or hypogonadotropic hypogonadism (congenital or acquired) and with morning serum T<300 ng/dL based on 2 consecutive blood samples obtained between 0600 and 1000 on 2 separate days at approximately the same time were eligible to participate. Subjects were either naïve to T therapy or completed an adequate washout of T therapy (eg, 12 weeks after intramuscular androgen injections excluding TU injections which required a longer waiting period; 4 weeks after topical or buccal androgens; and 3 weeks after oral androgens). Exclusion criteria included abnormal prostate digital rectal examination with palpable nodule(s) or International Prostate Symptom Score (IPSS)>19 points; body mass index ≥38 kg/m^2, clinically significant laboratory values (baseline hemoglobin <11.5 or >16.5 g/dL, hematocrit <35% or >54%, serum transaminases >2.5 times upper limit of normal, serum bilirubin >2.0 mg/dL, creatinine >2.0 mg/dL, prostate specific antigen [PSA]>2 ng/mL, prolactin >17.7 ng/mL); history of seizures or convulsions; any surgical procedure that might interfere with gastrointestinal motility, pH, or absorption; stroke or myocardial infarction within 5 years; current or suspected prostate or breast cancer; severe, untreated, obstructive sleep apnea; long QT syndrome or unexplained sudden death in first-degree relative; concurrent medication use that could impact absorption, distribution, metabolism, or excretion of TU or place subject at risk for treatment with T; and dose changes of antihypertensive, lipid-lowering, or hypoglycemic agents within previous 3 months.
# as §3, §2
# [8] = 4th quartile patients based on lab parameter level, 1 Year Oral TU Study
# [9] = Safety Set, baseline to end of study
smiles,measurement,setting,value
"CCCCCCCCCCC(=O)O[C@H]1CC[C@H]2[C@@H]3CCC4=CC(=O)CC[C@]4(C)[C@H]3CC[C@]12C [oral testosterone undecanoate, testosterone undecanoate]",SHBG change from baseline,[1]; Week 13 (largest decrease),-11.75 nmol/L
same,Mean SHBG levels,[1]; each post-baseline visit,decreased
same,normalization rate for LDL-C,[2],50%
same,normalization rate for total cholesterol,[2],29%
same,normalization rate for triglyceride,[2],21%
same,subjects with BUN normalization,[2],60%
same,subjects with above normal GGT levels who ended the study with normal GGT levels,[2],0%
same,subjects with above normal ALT levels who ended the study with normal ALT levels,[2]; mean baseline ALT 48.7,100%
same,"LDL-C, mean change from baseline",[3]; [8],-10.2 mg/dL
same,"LDL-C, mean change from baseline, %",[3]; [8],−6.1%
same,"Non-HDL-C, mean change from baseline",[3]; [8],-18.2 mg/dL
same,"Non-HDL-C, mean change from baseline, %",[3]; [8],−8.7%
same,"Total Cholesterol, mean change from baseline",[3]; [8],-20.2 mg/dL
same,"Total Cholesterol, mean change from baseline, %",[3]; [8],−7.9%
same,"Triglycerides, mean change from baseline",[3]; [8],-85.1 mg/dL
same,"Triglycerides, mean change from baseline, %",[3]; [8],−19.0%
same,"Cholesterol, mean (SD) change from baseline to end of study",[3]; [9],-0.24 (0.82) mmol/L
same,"HDL cholesterol, mean (SD) change from baseline to end of study",[3]; [9],−0.14 (0.22) mmol/L
same,"LDL cholesterol, mean (SD) change from baseline to end of study",[3]; [9],−0.05 (0.66) mmol/L
same,"Triglyceride, mean (SD) change from baseline to end of study",[3]; [9],−0.18 (1.14) mmol/L
same,Serum HDL cholesterol decrease at EOS,[3]; compared with T gel,significantly larger decrease
same,HDL cholesterol: subjects with a shift from normal at baseline to low at EOS,[3]; in vivo,19.0%
same,"other lipid parameters, difference between oral testosterone undecanoate and T gel",[3]; lipid parameters other than HDL cholesterol,No statistically significant differences
same,"Lp-PLA2, mean change from baseline",[4]; [8],-47.8 ng/mL
same,"Lp-PLA2, mean change from baseline, %",[4]; [8],−17.1%
same,"Lp-PLA2, mean (SD) change from baseline to end of study",[4]; [9],−9.6 (42.07) ng/mL
same,"Lipoprotein-associated phospholipase A2, baseline to EOS",[4]; difference in change between groups not significant,decreased significantly
same,"C-Reactive Protein, mean (SD) change from baseline to end of study",[5],−4.68 (30.94) nmol/L
same,ratio of DHT/T based on Cavg0-24 h,[6]; Week 3,0.24
same,ratio of DHT/T based on Cmax,[6]; Week 3,0.16
same,ratio of DHT/T based on Cavg0-24 h,[6]; Week 7,0.26
same,ratio of DHT/T based on Cmax,[6]; Week 7,0.18
same,ratio of DHT/T based on Cavg0-24 h,[6]; Week 13,0.26
same,ratio of DHT/T based on Cmax,[6]; Week 13,0.18
same,Calculated free T levels,[6]; normal values 9 to 30 ng/dL,consistently within normal values
same,serum T Cavg0-24 h,[7]; Week 13,446 ng/dL
same,serum T Cmax,[7]; Week 13,1134 ng/dL
same,subjects with serum T Cavg0-24 h between 300 and 1140 ng/dL,"[7]; Week 13, 95% lower bound CI: 81.7%, met predefined efficacy criteria",87.4%
same,Average serum T levels,[7]; Week 26,481 ± 371 ng/dL
same,Average serum T levels,[7]; Week 39,543 ± 438 ng/dL
